Results from patent US10913753B2, “Thienopyridine carboxamides as ubiquitin-specific protease inhibitors” (FORMA Therapeutics, Inc., priority 2016, dated 2021).

Assays:
USP25 = USP25 (Homo sapiens (Human), UniProt Q9UHP3); test: Ubiquitin-Rhodamine 110 Assay for USP25 Activity; type: biochemical
Procedure: The assay was performed in a final volume of 9 μL in assay buffer containing 20 mM Tris-HCl (pH 8.0, (1M Tris-HC1, pH 8.0 solution; Corning 46-031-CM)), 3 mM BME (2-Mercaptoethanol; Sigma 63689-25ML-F), 0.03% BGG (0.22 μM filtered, Sigma, G7516-25G), and 0.01% Triton X-100 (Sigma, T9284-10L). Nanoliter quantities of 10-point, 3-fold serial dilution in DMSO was pre-dispensed into 1536 assay plates (Corning, #3724BC) for a final test concentration of 25 μM to 1.3 nM, top to lowest dose, respectively. Enzyme USP25, construct USP25-His6, (Boston Biochem E-546). Concentration and incubation times were optimized for the maximal signal-to-background while maintaining initial velocity conditions at a fixed substrate concentration. The final concentration of the enzyme in the assay was 75 pM. […] 3 μL of 2× enzyme was added to assay plates (pre-stamped with compound) preincubated with […] for 30 minutes and then 3 μL of 2× Ub-Rh110 was added to assay plates. Plates were incubated for 45 minutes at room temperature before addition of 3 μL of stop solution (final concentration of 10 mM citric acid (Sigma, 251275-500G)). Fluorescence was read on the Envision (Excitation at 485 nm and Emission at 535 nm; Perkin Elmer) or on the PheraSTAR (Excitation at 485 nm and Emission at 535 nm; BMG Labtech).
(§1) For both the USP28 and USP25 assay formats, data were reported as percent inhibition compared with control wells based on the following equation: % inh=1-((FLU-AveLow)/(AveHigh−AveLow)) where FLU=measured Fluorescence, AveLow=average Fluorescence of no enzyme control (n=16), and AveHigh=average Fluorescence of DMSO control (n=16). IC50 values were determined by curve fitting of the standard 4 parameter logistic fitting algorithm included in the Activity Base software package: IDBS XE Designer Model205. Data is fitted using the Levenburg Marquardt algorithm.

USP28 = USP28 (Homo sapiens (Human), UniProt Q96RU2); test: Ubiquitin-Rhodamine 110 Assay for USP28 Activity; type: biochemical
Chain of USP28 (Q96RU2 whole entry): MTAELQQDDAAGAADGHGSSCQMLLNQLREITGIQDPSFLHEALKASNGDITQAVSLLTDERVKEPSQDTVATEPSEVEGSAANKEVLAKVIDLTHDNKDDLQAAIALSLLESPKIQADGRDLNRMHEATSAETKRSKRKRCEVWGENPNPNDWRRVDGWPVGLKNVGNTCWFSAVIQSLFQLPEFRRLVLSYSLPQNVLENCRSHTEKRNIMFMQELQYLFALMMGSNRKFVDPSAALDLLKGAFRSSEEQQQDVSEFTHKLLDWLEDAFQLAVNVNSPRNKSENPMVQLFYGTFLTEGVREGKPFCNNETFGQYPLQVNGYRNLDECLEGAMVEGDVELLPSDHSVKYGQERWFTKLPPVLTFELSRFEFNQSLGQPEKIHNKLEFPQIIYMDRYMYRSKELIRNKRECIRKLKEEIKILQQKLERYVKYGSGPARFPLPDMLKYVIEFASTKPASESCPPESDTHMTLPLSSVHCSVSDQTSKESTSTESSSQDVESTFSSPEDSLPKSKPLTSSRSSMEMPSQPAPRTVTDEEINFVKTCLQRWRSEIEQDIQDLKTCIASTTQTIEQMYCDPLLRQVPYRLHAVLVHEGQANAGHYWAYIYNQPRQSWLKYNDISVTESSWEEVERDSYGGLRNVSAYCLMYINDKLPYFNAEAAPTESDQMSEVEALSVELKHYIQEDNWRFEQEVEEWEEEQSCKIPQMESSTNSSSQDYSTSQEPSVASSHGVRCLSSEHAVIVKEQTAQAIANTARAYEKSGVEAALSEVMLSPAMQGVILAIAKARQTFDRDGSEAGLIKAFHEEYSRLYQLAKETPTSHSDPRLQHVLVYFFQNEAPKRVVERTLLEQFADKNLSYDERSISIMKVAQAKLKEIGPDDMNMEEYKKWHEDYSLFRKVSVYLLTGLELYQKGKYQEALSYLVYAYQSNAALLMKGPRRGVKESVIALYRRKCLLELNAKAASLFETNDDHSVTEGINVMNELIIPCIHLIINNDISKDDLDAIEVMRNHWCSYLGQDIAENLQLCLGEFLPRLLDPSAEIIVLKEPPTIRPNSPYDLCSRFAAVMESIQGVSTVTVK
Procedure: The assay was performed in a final volume of 20 μL in assay buffer containing 20 mM Tris-HCl (pH 8.0, (1M Tris-HCl, pH 8.0 solution; Corning 46-031-CM)), 2 mM CaCl2 (1M Calcium Chloride solution; Sigma #21114) 2 mM BME (2-Mercaptoethanol; Sigma 63689-25ML -F), 0.01% Prionex (0.22 μM filtered, Sigma #G-0411), and 0.01% Triton X-100. Stock compound solutions were stored at −20° C. as 10 mM in DMSO. Up to 1 month prior to the assay, 2 mM test compounds were pre-dispensed into assay plates (Black, low volume; Corning #3820) and frozen at −20° C. Prestamped assay plates were allowed to come to room temperature on the day of the assay. For the screen, 100 nL of 2 mM was pre-dispensed for a final screening concentration of 10 μM (DMSO(fc)=0.5%). […] Plates were incubated stacked for 90 minutes at room temperature before fluorescence was read on the Envision (Excitation at 485 nm and Emission at 535 nm; Perkin Elmer) or on the PheraSTAR (Excitation at 485 nm and Emission at 535 nm; BMG Labtech).
For follow-up studies, the assay was performed in a final volume of 15 μL in assay buffer containing 20 mM Tris-HCl (pH 8.0, (1M Tris-HCl, pH 8.0 solution; Corning 46-031-CM)), 3 mM BME (2-Mercaptoethanol; Sigma 63689-25ML-F), 0.03% BGG (0.22 μM filtered, Sigma, G7516-25G), and 0.01% Triton X-100 (Sigma, T9284-10L). Nanoliter quantities of either an 8-point or 10-point, 3-fold serial dilution in DMSO was pre-dispensed into assay plates (Perkin Elmer, ProxiPlate-384 F Plus) for a final test concentration of either 25 μM to 11 nM or 25 μM to 1.3 nM, respectively. Enzyme USP28, construct USP28 (USP28-5(1-1077)-TEV-6*His; LifeSensors) concentration and incubation times were optimized for the maximal signal-to -background while maintaining initial velocity conditions at a fixed substrate concentration. The final concentration of the enzyme in the assay was 75 pM. […] 5 μL of 2× enzyme was added to assay plates (pre-stamped with compound) preincubated with USP28 for 30 minutes and then 5 μL of 2× Ub-Rh110 was added to assay plates. Plates were incubated stacked for 20 min at room temperature before 5 μL of stop solution was added (final concentration of 10 mM citric acid (Sigma, 251275-500G)). Fluorescence was read on the Envision (Excitation at 485 nm and Emission at 535 nm; Perkin Elmer) or on the PheraSTAR (Excitation at 485 nm and Emission at 535 nm; BMG Labtech).
as §1

Chain of USP25 (Q9UHP3 whole entry): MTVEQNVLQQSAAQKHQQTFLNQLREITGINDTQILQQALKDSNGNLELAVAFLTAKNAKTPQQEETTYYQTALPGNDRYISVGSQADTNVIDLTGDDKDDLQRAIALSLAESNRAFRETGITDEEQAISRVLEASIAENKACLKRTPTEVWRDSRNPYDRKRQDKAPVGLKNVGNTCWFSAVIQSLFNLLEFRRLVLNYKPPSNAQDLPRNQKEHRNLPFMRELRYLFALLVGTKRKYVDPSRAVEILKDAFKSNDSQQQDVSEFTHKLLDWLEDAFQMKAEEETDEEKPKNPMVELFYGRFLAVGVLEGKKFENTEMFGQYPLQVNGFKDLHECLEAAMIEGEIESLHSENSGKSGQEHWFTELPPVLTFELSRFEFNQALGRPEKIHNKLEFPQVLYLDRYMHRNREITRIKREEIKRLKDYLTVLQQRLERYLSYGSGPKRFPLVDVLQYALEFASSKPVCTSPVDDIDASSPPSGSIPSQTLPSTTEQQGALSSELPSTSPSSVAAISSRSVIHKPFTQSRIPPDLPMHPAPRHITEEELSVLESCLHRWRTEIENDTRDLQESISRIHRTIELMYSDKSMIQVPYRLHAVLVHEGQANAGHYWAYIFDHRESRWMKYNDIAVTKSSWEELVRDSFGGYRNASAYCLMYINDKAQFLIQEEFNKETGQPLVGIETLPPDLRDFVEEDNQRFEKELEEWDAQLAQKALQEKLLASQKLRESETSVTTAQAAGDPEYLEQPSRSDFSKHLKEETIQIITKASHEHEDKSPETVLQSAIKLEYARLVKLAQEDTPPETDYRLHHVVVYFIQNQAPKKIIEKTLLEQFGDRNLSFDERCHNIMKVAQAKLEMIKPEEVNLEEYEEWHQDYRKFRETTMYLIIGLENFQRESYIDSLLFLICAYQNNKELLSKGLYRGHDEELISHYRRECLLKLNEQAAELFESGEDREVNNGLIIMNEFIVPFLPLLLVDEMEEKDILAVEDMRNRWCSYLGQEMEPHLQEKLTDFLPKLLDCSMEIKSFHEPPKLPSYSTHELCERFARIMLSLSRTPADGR

SMILES | IC50 (USP25) [nM] | IC50 (USP28) [nM]
Cc1ccc2c(N)c(C(=O)NC[C@H](C)c3ccc(N4CC5CCC(C4)N5)c(C#N)c3)sc2n1 (single isomer, unassigned) [Example I-110] | 2000 to 10000 | 200 to 2000
Cc1nc2sc(C(=O)NC[C@@H](C)c3cc(F)c(N4CC5CCC(C4)N5)cc3F)c(N)c2cc1F (single isomer, unassigned) [Example I-111] | 200 to 2000 | < 200
Cc1nc2sc(C(=O)NC[C@H](C)c3cc(F)c(N4CC5CCC(C4)N5)cc3F)c(N)c2cc1F (single isomer, unassigned) [Example I-112] | 2000 to 10000 | 200 to 2000
Cc1ccc2c(N)c(C(=O)NCCc3ccc(C4CC5CCC(C4)N5)cc3)sc2n1 (single isomer, unassigned) [Example I-171, N-(4-(8-azabicyclo[3.2.1]octan-3-yl)phenethyl)-3-amino-6-methylthieno[2,3-b]pyridine-2-carboxamide] | 200 to 2000 | 200 to 2000
Cc1ccc2c(N)c(C(=O)NCCc3ccc(C4CC5CCC(C4)N5)cc3)sc2n1 (single isomer, unassigned) [Example I-172, N-(4-(8-azabicyclo[3.2.1]octan-3-yl)phenethyl)-3-amino-6-methylthieno[2,3-b]pyridine-2-carboxamide] | < 200 | < 200
Cc1ccc2c(N)c(C(=O)NCCc3ccc([C@H]4CCNC4)cc3)sc2n1 (single isomer, unassigned) [Example I-180] | 200 to 2000 | < 200
Cc1ccc2c(N)c(C(=O)NCCc3ccc([C@@H]4CCNC4)cc3)sc2n1 (single isomer, unassigned) [Example I-181] | 200 to 2000 | < 200
CN[C@@H]1CN(c2cc(F)c(CCNC(=O)c3sc4nc(C)ccc4c3N)cc2F)C[C@@H]1F (single isomer, unassigned) [Example I-211] | 2000 to 10000 | 200 to 2000
CN[C@H]1CN(c2cc(F)c(CCNC(=O)c3sc4nc(C)ccc4c3N)cc2F)C[C@H]1F (single isomer, unassigned) [Example I-212] | 200 to 2000 | 200 to 2000
CN[C@@H]1CN(c2cc(F)c(CCNC(=O)c3sc4nc(C)ccc4c3N)cc2F)C[C@H]1F (single isomer, unassigned) [Example I-213] | 200 to 2000 | 200 to 2000
CN[C@H]1CN(c2cc(F)c(CCNC(=O)c3sc4nc(C)ccc4c3N)cc2F)C[C@@H]1F (single isomer, unassigned) [Example I-214] | 2000 to 10000 | 200 to 2000
Cc1ccc2c(N)c(C(=O)NCCc3ccc(N4CCC5(CCCNC5)C4)cc3)sc2n1 (single isomer, unassigned) [Example I-216] | 200 to 2000 | 200 to 2000
Cc1ccc2c(N)c(C(=O)NCCc3ccc(O[C@@H]4COC5(CNC5)C4)cc3)sc2n1 (single isomer, unassigned) [Example I-218] | 200 to 2000 | 200 to 2000
Cc1ccc2c(N)c(C(=O)NCCc3ccc(O[C@H]4COC5(CNC5)C4)cc3)sc2n1 (single isomer, unassigned) [Example I-219] | 200 to 2000 | 200 to 2000
C[C@H](O)c1ccc2c(N)c(C(=O)NCCc3ccc(N4CCNCC4)cc3)sc2n1 (single isomer, unassigned) [Example I-221] | 10000 to 25000 | 10000 to 25000
C[C@@H](O)c1ccc2c(N)c(C(=O)NCCc3ccc(N4CCNCC4)cc3)sc2n1 (single isomer, unassigned) [Example I-222] | 200 to 2000 | 200 to 2000
COc1cc(N2CCNCC2)ccc1CCNC(=O)c1sc2nc(C)ccc2c1N [Compound I-2] | < 200 | < 200
Cc1ccc2c(N)c(C(=O)NCCc3ccc(N4CCNCC4)cc3F)sc2n1 [Compound I-5] | 200 to 2000 | 200 to 2000
Cc1ccc2c(N)c(C(=O)NCCc3ccc(N4CCNCC4)c(C4CC4)c3)sc2n1 [Compound I-6] | 200 to 2000 | < 200

SMILES | IC50 (USP25) [nM] | IC50 (USP28) [nM]
Cc1cc(C(F)(F)F)c2c(N)c(C(=O)NCCc3ccc(N4CCNCC4)c(F)c3)sc2n1 [Compound I-7] | < 200 | 200 to 2000
Cc1ccc2c(N)c(C(=O)NCCc3ccc(-c4cnn5c4CNCC5)cc3)sc2n1 [Compound I-12] | 200 to 2000 | < 200
Cc1ccc2c(N)c(C(=O)NCCc3ccc(C4CCNCC4)cc3)sc2n1 [Compound I-13] | 200 to 2000 | < 200
Cc1cc(C(F)F)c2c(N)c(C(=O)NCCc3ccc(N4CCNCC4)cc3)sc2n1 [Compound I-14] | < 200 | < 200
Cc1ccc2c(N)c(C(=O)NCCc3ccc(N4CC5CCC(C4)N5)cc3)sc2n1 [Compound I-15] | 200 to 2000 | < 200
Nc1cc(C(F)F)c2c(N)c(C(=O)NCCc3ccc(N4CCNCC4)cc3)sc2n1 [Compound I-16] | 200 to 2000 | < 200
Cc1cc(N)nc2sc(C(=O)NCCc3ccc(N4CCNCC4)c(Cl)c3)c(N)c12 [Compound I-17] | 2000 to 10000 | 200 to 2000
Cc1ccc2c(N)c(C(=O)NCCc3ccc(N4CCNCC4)c4c3CCC4)sc2n1 [Compound I-18] | < 200 | < 200
Cc1ccc2c(N)c(C(=O)NCCc3ccc(N4CC5CCC(C4)N5)c(Cl)c3)sc2n1 [Compound I-20] | 200 to 2000 | 200 to 2000
Cc1ccc2c(N)c(C(=O)NCCc3ccc(N4CC5CCC(C4)N5)cc3Cl)sc2n1 [Compound I-21] | < 200 | < 200
Cc1ccc2c(N)c(C(=O)NCCc3ccc(N4CC5CCC(C4)N5)cc3F)sc2n1 [Compound I-22] | 200 to 2000 | < 200
Cc1ccc2c(N)c(C(=O)NCCc3ccc(N4CCNCC4)c(-c4ccccc4)c3)sc2n1 [Compound I-23] | 2000 to 10000 | 200 to 2000
COc1cc(C)nc2sc(C(=O)NCCc3ccc(N4CCNCC4)cc3)c(N)c12 [Compound I-24] | 10000 to 25000 | 2000 to 10000
Cc1ccc2c(N)c(C(=O)NCCc3ccc(N4CCN(CC5CCO5)CC4)cc3)sc2n1 (stereo not shown) [Compound I-25] | 2000 to 10000 | 200 to 2000
COCCN1CCN(c2ccc(CCNC(=O)c3sc4nc(C)ccc4c3N)cc2)CC1 [Compound I-26] | 2000 to 10000 | 200 to 2000
Nc1c(C(=O)NCCc2ccc(N3CCNCC3)cc2)sc2ncc(C(F)F)cc12 [Compound I-27] | 10000 to 25000 | 2000 to 10000
Nc1c(C(=O)NCCc2ccc(N3CCNCC3)cc2)sc2ncc3c(c12)CCC3 [Compound I-28] | 2000 to 10000 | 2000 to 10000
Nc1c(C(=O)NCCc2ccc(N3CCNCC3)cc2)sc2nc3c(cc12)CCC3 [Compound I-29] | 2000 to 10000 | 2000 to 10000
Nc1c(C(=O)NCCc2ccc(N3CCNCC3)cc2)sc2nc3c(cc12)CCCC3 [Compound I-30] | 10000 to 25000 | 2000 to 10000
